Assay results reported in PubChem BioAssay (NCI).
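Abbreviation: GI50, concentration required for 50% inhibition of growth. TGI denotes the concentration required for complete inhibition of growth.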

Columns and labels:
Test in all cases: NCI tumour cell line growth inhibition, 384-well format
KM12 colon = tested on: KM12 colon
NCI-H522 lung = tested on: NCI-H522 lung
SK-MEL-5 melanoma = tested on: SK-MEL-5 melanoma
NCI-H226 lung = tested on: NCI-H226 lung
M14 melanoma = tested on: M14 melanoma
MALME-3M melanoma = tested on: MALME-3M melanoma
EKVX NSCLC = tested on: EKVX NSCLC
U251 glioblastoma = tested on: U251 glioblastoma
SK-MEL-28 melanoma = tested on: SK-MEL-28 melanoma
SR leukemia = tested on: SR leukemia
MDA-MB-468 breast = tested on: MDA-MB-468 breast
HT29 colon = tested on: HT29 colon
786-0 renal = tested on: 786-0 renal
SF-268 CNS = tested on: SF-268 CNS
UACC-62 melanoma = tested on: UACC-62 melanoma
NCI-H322M lung = tested on: NCI-H322M lung
SK-OV-3 ovarian = tested on: SK-OV-3 ovarian
HOP-62 NSCLC = tested on: HOP-62 NSCLC
SF-295 CNS = tested on: SF-295 CNS
HCC-2998 colon = tested on: HCC-2998 colon
TK-10 renal = tested on: TK-10 renal
NCI-H23 lung = tested on: NCI-H23 lung
A549 NSCLC = tested on: A549 NSCLC
HCT-15 colon = tested on: HCT-15 colon
OVCAR-3 ovarian = tested on: OVCAR-3 ovarian
OVCAR-4 ovarian = tested on: OVCAR-4 ovarian
MDA-MB-435 melanoma = tested on: MDA-MB-435 melanoma
IGROV1 ovarian = tested on: IGROV1 ovarian
COLO 205 colon = tested on: COLO 205 colon
A498 renal = tested on: A498 renal
RXF 393 renal = tested on: RXF 393 renal
SF-539 CNS = tested on: SF-539 CNS
OVCAR-5 ovarian = tested on: OVCAR-5 ovarian
SNB-19 CNS = tested on: SNB-19 CNS
LOX IMVI melanoma = tested on: LOX IMVI melanoma
UACC-257 melanoma = tested on: UACC-257 melanoma
CCRF-CEM leukemia = tested on: CCRF-CEM leukemia
ACHN renal = tested on: ACHN renal
SN12C renal = tested on: SN12C renal
OVCAR-8 ovarian = tested on: OVCAR-8 ovarian
BT-549 breast = tested on: BT-549 breast
NCI/ADR-RES ovarian = tested on: NCI/ADR-RES ovarian
SW-620 colon = tested on: SW-620 colon
HOP-92 NSCLC = tested on: HOP-92 NSCLC
T-47D breast = tested on: T-47D breast
K-562 leukemia = tested on: K-562 leukemia
HS 578T breast = tested on: HS 578T breast
NCI-H460 NSCLC = tested on: NCI-H460 NSCLC
SNB-75 CNS = tested on: SNB-75 CNS
MDA-MB-231 breast = tested on: MDA-MB-231 breast
CAKI-1 renal = tested on: CAKI-1 renal
DU-145 prostate = tested on: DU-145 prostate
MCF7 breast = tested on: MCF7 breast
MOLT-4 leukemia = tested on: MOLT-4 leukemia
PC-3 prostate = tested on: PC-3 prostate

`Nc1ncc(-c2cnn(CCO)c2)c2scc(-c3ccc(NC(=O)Nc4cccc(F)c4)cc3)c12` was tested, and the GI50 (KM12 colon) was < 10 nM, the TGI (KM12 colon) was 1210 nM and the GI50 (NCI-H522 lung) was 220 nM. The TGI (NCI-H522 lung) was 928 nM, the GI50 (SK-MEL-5 melanoma) was 807 nM and the TGI (SK-MEL-5 melanoma) was 2070 nM. For the same compound, the GI50 (NCI-H226 lung) was 238 nM, the TGI (NCI-H226 lung) was 2090 nM and the GI50 (M14 melanoma) was 147 nM. It also gave a TGI (M14 melanoma) of 1140 nM, a GI50 (MALME-3M melanoma) of 53.5 nM and a TGI (MALME-3M melanoma) of 646 nM. For the same compound, the GI50 (EKVX NSCLC) was 1030 nM, the TGI (EKVX NSCLC) was 2980 nM and the GI50 (U251 glioblastoma) was 812 nM. It also gave a TGI (U251 glioblastoma) of 2170 nM, a GI50 (SK-MEL-28 melanoma) of 402 nM and a TGI (SK-MEL-28 melanoma) of 1720 nM. The GI50 (SR leukemia) was < 10 nM, the TGI (SR leukemia) was < 10 nM and the GI50 (MDA-MB-468 breast) was 18.8 nM. The TGI (MDA-MB-468 breast) was 74.9 nM, the GI50 (HT29 colon) was 507 nM and the TGI (HT29 colon) was 2640 nM. The GI50 ([…]-0 renal) was 373 nM, the TGI (786-0 renal) was 1740 nM and the GI50 (SF-268 CNS) was 354 nM. The TGI (SF-268 CNS) was 1920 nM, the GI50 (UACC-62 melanoma) was 376 nM and the TGI (UACC-62 melanoma) was 1640 nM. For the same compound, the GI50 (NCI-H322M lung) was 634 nM, the TGI (NCI-H322M lung) was 2890 nM and the GI50 (SK-OV-3 ovarian) was 297 nM. For the same compound, the TGI (SK-OV-3 ovarian) was 1300 nM, the GI50 (HOP-62 NSCLC) was 309 nM and the TGI (HOP-62 NSCLC) was 1810 nM. It also gave a GI50 (SF-295 CNS) of 186 nM, a TGI (SF-295 CNS) of 1370 nM and a GI50 (HCC-2998 colon) of 1160 nM. For the same compound, the TGI (HCC-2998 colon) was 2550 nM, the GI50 (TK-10 renal) was 920 nM and the TGI (TK-10 renal) was 3620 nM. It also gave a GI50 (NCI-H23 lung) of 178 nM, a TGI (NCI-H23 lung) of 603 nM and a GI50 (A549 NSCLC) of 263 nM. For the same compound, the TGI (A549 NSCLC) was 3770 nM, the GI50 (HCT-15 colon) was 349 nM and the TGI (HCT-15 colon) was 1720 nM. The GI50 (OVCAR-3 ovarian) was 188 nM, the TGI (OVCAR-3 ovarian) was 2010 nM and the GI50 (OVCAR-4 ovarian) was 674 nM. The TGI (OVCAR-4 ovarian) was 2380 nM, the GI50 (MDA-MB-435 melanoma) was 317 nM and the TGI (MDA-MB-435 melanoma) was 1890 nM. The GI50 (IGROV1 ovarian) was 385 nM, the TGI (IGROV1 ovarian) was 2550 nM and the GI50 (COLO 205 colon) was < 10 nM. The TGI (COLO 205 colon) was 241 nM, the GI50 (A498 renal) was 312 nM and the TGI (A498 renal) was 1720 nM. It also gave a GI50 (RXF 393 renal) of 275 nM, a TGI (RXF 393 renal) of 1460 nM and a GI50 (SF-539 CNS) of 169 nM. The TGI (SF-539 CNS) was 1110 nM, the GI50 (OVCAR-5 ovarian) was 612 nM and the TGI (OVCAR-5 ovarian) was 2200 nM. For the same compound, the GI50 (SNB-19 CNS) was 836 nM, the TGI (SNB-19 CNS) was 2550 nM and the GI50 (LOX IMVI melanoma) was 318 nM. The TGI (LOX IMVI melanoma) was 1320 nM, the GI50 (UACC-257 melanoma) was 311 nM and the TGI (UACC-257 melanoma) was 1390 nM. The GI50 (CCRF-CEM leukemia) was < 10 nM, the TGI (CCRF-CEM leukemia) was < 10 nM and the GI50 (ACHN renal) was 352 nM. It also gave a TGI (ACHN renal) of 1770 nM, a GI50 (SN12C renal) of 179 nM and a TGI (SN12C renal) of 555 nM. The GI50 (OVCAR-8 ovarian) was 315 nM, the TGI (OVCAR-8 ovarian) was 2130 nM and the GI50 (BT-549 breast) was 323 nM. The TGI (BT-549 breast) was 1280 nM, the GI50 (NCI/ADR-RES ovarian) was 363 nM and the TGI (NCI/ADR-RES ovarian) was 10000 nM. It also gave a GI50 (SW-620 colon) of 242 nM, a TGI (SW-620 colon) of 1130 nM and a GI50 (HOP-92 NSCLC) of 238 nM. The TGI (HOP-92 NSCLC) was 1100 nM, the GI50 (T-47D breast) was 1450 nM and the TGI (T-47D breast) was 3310 nM. For the same compound, the GI50 (K-562 leukemia) was 16.7 nM, the TGI (K-562 leukemia) was 42.9 nM and the GI50 (HS 578T breast) was 226 nM. The TGI (HS 578T breast) was 943 nM, the GI50 (NCI-H460 NSCLC) was < 10 nM and the TGI (NCI-H460 NSCLC) was 1060 nM. For the same compound, the GI50 (SNB-75 CNS) was 172 nM, the TGI (SNB-75 CNS) was 740 nM and the GI50 (MDA-MB-231 breast) was 1010 nM. It also gave a TGI (MDA-MB-231 breast) of 3190 nM, a GI50 (CAKI-1 renal) of 212 nM and a TGI (CAKI-1 renal) of 1200 nM. It also gave a GI50 (DU-145 prostate) of 462 nM, a TGI (DU-145 prostate) of 2380 nM and a GI50 (MCF7 breast) of 318 nM. The TGI (MCF7 breast) was 1830 nM, the GI50 (MOLT-4 leukemia) was < 10 nM and the TGI (MOLT-4 leukemia) was < 10 nM. For the same compound, the GI50 (PC-3 prostate) was 1270 nM and the TGI (PC-3 prostate) was 3730 nM.
